Assay results from PubChem BioAssay (NCI).
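Here, GI50 denotes the concentration required for 50% inhibition of growth. Definition used: TGI = concentration required for complete inhibition of growth.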

Experiments:
Experiment in all cases: inhibition of tumour cell growth, NCI panel, 384-well format
[1] = system: HOP-92 NSCLC
[2] = system: NCI-H522 lung
[3] = system: LOX IMVI melanoma
[4] = system: RPMI-8226 leukemia
[5] = system: M14 melanoma
[6] = system: KM12 colon
[7] = system: PC-3 prostate
[8] = system: UACC-257 melanoma
[9] = system: OVCAR-4 ovarian
[10] = system: HCC-2998 colon
[11] = system: TK-10 renal
[12] = system: OVCAR-8 ovarian
[13] = system: COLO 205 colon
[14] = system: MDA-MB-231 breast
[15] = system: MALME-3M melanoma
[16] = system: SF-295 CNS
[17] = system: SK-OV-3 ovarian
[18] = system: HT29 colon
[19] = system: HS 578T breast
[20] = system: K-562 leukemia
[21] = system: SK-MEL-28 melanoma
[22] = system: HOP-62 NSCLC
[23] = system: CCRF-CEM leukemia
[24] = system: OVCAR-3 ovarian
[25] = system: SK-MEL-5 melanoma
[26] = system: NCI-H23 lung
[27] = system: MOLT-4 leukemia
[28] = system: DU-145 prostate
[29] = system: 786-0 renal
[30] = system: HCT-15 colon
[31] = system: A498 renal
[32] = system: BT-549 breast
[33] = system: ACHN renal
[34] = system: SW-620 colon
[35] = system: SK-MEL-2 melanoma
[36] = system: IGROV1 ovarian
[37] = system: MDA-MB-435 melanoma
[38] = system: CAKI-1 renal
[39] = system: NCI/ADR-RES ovarian
[40] = system: A549 NSCLC
[41] = system: RXF 393 renal
[42] = system: SN12C renal
[43] = system: UACC-62 melanoma
[44] = system: SF-539 CNS
[45] = system: NCI-H226 lung
[46] = system: HCT-116 colon
[47] = system: EKVX NSCLC

`Cc1cc(Nc2ccc(NC(=O)c3ccc(Nc4ccnc5ccccc45)cc3)cc2)nc(N)n1` gave a GI50 [1] of 539 nM, a TGI [1] of 1520 nM and a GI50 [2] of 217 nM. For the same compound, the TGI [2] was 410 nM, the GI50 [3] was 166 nM and the TGI [3] was 308 nM. The GI50 [4] was 3110 nM, the TGI [4] was 7870 nM and the GI50 [5] was 1550 nM. For the same compound, the TGI [5] was 2920 nM, the GI50 [6] was 193 nM and the TGI [6] was 355 nM. For the same compound, the GI50 [7] was 894 nM, the TGI [7] was 2250 nM and the GI50 [8] was 556 nM. It also gave a TGI [8] of 1560 nM, a GI50 [9] of 521 nM and a TGI [9] of 957 nM. For the same compound, the GI50 [10] was 541 nM, the TGI [10] was 1000 nM and the GI50 [11] was 5630 nM. For the same compound, the TGI [11] was 17500 nM, the GI50 [12] was 831 nM and the TGI [12] was 2100 nM. For the same compound, the GI50 [13] was 206 nM, the TGI [13] was 352 nM and the GI50 [14] was 275 nM. The TGI [14] was 737 nM, the GI50 [15] was 1000 nM and the TGI [15] was 2230 nM. It also gave a GI50 [16] of 3160 nM, a TGI [16] of 8990 nM and a GI50 [17] of 917 nM. It also gave a TGI [17] of 2250 nM, a GI50 [18] of 319 nM and a TGI [18] of 815 nM. It also gave a GI50 [19] of 1050 nM, a TGI [19] of 2240 nM and a GI50 [20] of 324 nM. The TGI [20] was 921 nM, the GI50 [21] was 987 nM and the TGI [21] was 2270 nM. The GI50 [22] was 695 nM, the TGI [22] was 1840 nM and the GI50 [23] was 191 nM. For the same compound, the TGI [23] was 335 nM, the GI50 [24] was 189 nM and the TGI [24] was 333 nM. For the same compound, the GI50 [25] was 1340 nM, the TGI [25] was 2630 nM and the GI50 [26] was 1010 nM. It also gave a TGI [26] of 2840 nM, a GI50 [27] of 203 nM and a TGI [27] of 347 nM. For the same compound, the GI50 [28] was 1600 nM, the TGI [28] was 2980 nM and the GI50 [29] was 872 nM. The TGI [29] was 2240 nM, the GI50 [30] was 3870 nM and the TGI [30] was 13800 nM. It also gave a GI50 [31] of 1500 nM, a TGI [31] of 2890 nM and a GI50 [32] of 490 nM. The TGI [32] was 1120 nM, the GI50 [33] was 11200 nM and the TGI [33] was 31000 nM. It also gave a GI50 [34] of 250 nM, a TGI [34] of 580 nM and a GI50 [35] of 199 nM. It also gave a TGI [35] of 386 nM, a GI50 [36] of 4970 nM and a TGI [36] of 9370 nM. It also gave a GI50 [37] of 1850 nM, a TGI [37] of 3260 nM and a GI50 [38] of 2960 nM. It also gave a TGI [38] of 8450 nM, a GI50 [39] greater than 100000 nM and a TGI [39] greater than 100000 nM. For the same compound, the GI50 [40] was 1870 nM, the TGI [40] was 3400 nM and the GI50 [41] was 750 nM. The TGI [41] was 1840 nM, the GI50 [42] was 1220 nM and the TGI [42] was 2480 nM. For the same compound, the GI50 [43] was 719 nM, the TGI [43] was 1940 nM and the GI50 [44] was 552 nM. For the same compound, the TGI [44] was 1020 nM, the GI50 [45] was 625 nM and the TGI [45] was 1210 nM. For the same compound, the GI50 [46] was 200 nM, the TGI [46] was 413 nM and the GI50 [47] was 1230 nM. For the same compound, the TGI [47] was 2670 nM.

Work on `CNCc1ccccc1-c1csc([C@@H](C)Nc2nc(C)nc3cc(OC)c(OC)cc23)c1` yielded a GI50 [1] of 171 nM, a TGI [1] of 1290 nM and a GI50 [2] of 1160 nM. For the same compound, the TGI [2] was 2390 nM, the GI50 [3] was 1650 nM and the TGI [3] was 3010 nM. For the same compound, the GI50 [4] was 643 nM, the TGI [4] was 1980 nM and the GI50 [5] was 1560 nM. It also gave a TGI [5] of 2900 nM, a GI50 [6] of 914 nM and a TGI [6] of 2140 nM. It also gave a GI50 [7] of 1530 nM, a TGI [7] of 2970 nM and a GI50 [8] of 275 nM. The TGI [8] was 810 nM, the GI50 [9] was 1140 nM and the TGI [9] was 2380 nM. The GI50 [10] was 240 nM, the TGI [10] was 1070 nM and the GI50 [11] was 1450 nM. For the same compound, the TGI [11] was 2770 nM, the GI50 [12] was 1500 nM and the TGI [12] was 2830 nM. It also gave a GI50 [13] of 1590 nM, a TGI [13] of 2940 nM and a GI50 [14] of 1720 nM. For the same compound, the TGI [14] was 3100 nM, the GI50 [15] was 1560 nM and the TGI [15] was 2900 nM. For the same compound, the GI50 [16] was 1700 nM, the TGI [16] was 3070 nM and the GI50 [17] was 1310 nM. For the same compound, the TGI [17] was 2580 nM, the GI50 [18] was 1560 nM and the TGI [18] was 2910 nM. It also gave a GI50 [19] of 302 nM, a TGI [19] of 2110 nM and a GI50 [20] of 64 nM. For the same compound, the TGI [20] was 723 nM, the GI50 [21] was 1510 nM and the TGI [21] was 2840 nM. For the same compound, the GI50 [22] was 1480 nM, the TGI [22] was 2800 nM and the GI50 [23] was 1070 nM. It also gave a TGI [23] of 2260 nM, a GI50 [24] of 1260 nM and a TGI [24] of 2520 nM. It also gave a GI50 [25] of 1150 nM, a TGI [25] of 2370 nM and a GI50 [26] of 1250 nM. The TGI [26] was 2540 nM, the GI50 [27] was 1180 nM and the TGI [27] was 2400 nM. For the same compound, the GI50 [28] was 1710 nM, the TGI [28] was 3200 nM and the GI50 [29] was 1240 nM. The TGI [29] was 2500 nM, the GI50 [30] was 1500 nM and the TGI [30] was 2830 nM. It also gave a GI50 [31] of 1030 nM, a TGI [31] of 2190 nM and a GI50 [32] of 1250 nM. It also gave a TGI [32] of 2500 nM, a GI50 [33] of 1510 nM and a TGI [33] of 2840 nM. It also gave a GI50 [34] of 1360 nM, a TGI [34] of 2640 nM and a GI50 [35] of 1320 nM. It also gave a TGI [35] of 2590 nM, a GI50 [36] of 1310 nM and a TGI [36] of 2590 nM. For the same compound, the GI50 [37] was 1570 nM, the TGI [37] was 2910 nM and the GI50 [38] was 1050 nM. For the same compound, the TGI [38] was 2220 nM, the GI50 [39] was 1620 nM and the TGI [39] was 2990 nM. It also gave a GI50 [40] of 1670 nM, a TGI [40] of 3040 nM and a GI50 [41] of 414 nM. The TGI [41] was 1670 nM, the GI50 [42] was 1030 nM and the TGI [42] was 2200 nM. It also gave a GI50 [43] of 1700 nM, a TGI [43] of 3080 nM and a GI50 [44] of 1140 nM. The TGI [44] was 2360 nM, the GI50 [45] was 1250 nM and the TGI [45] was 2580 nM. For the same compound, the GI50 [46] was 1290 nM, the TGI [46] was 2560 nM and the GI50 [47] was 1100 nM. The TGI [47] was 2320 nM.
